Measurements published in the Deep4Chem optical property database.

Experiment: solvent given as SMILES

Question: With `CN(C)c1ccc(-c2nc3cnccc3[nH]2)cc1` as the molecule, how does the absorption maximum (in C1CCCCC1) read?
Answer: The absorption maximum was 327 nm.

Question: What about the absorption maximum (in C1CCOC1) of the same molecule?
Answer: Its absorption maximum is 332 nm.

Question: And the absorption maximum (in C1COCCO1)?
Answer: The absorption maximum was 331 nm.

Question: And the absorption maximum (in CC#N)?
Answer: The absorption maximum was 335 nm.

Question: And the absorption maximum (in CCCCO)?
Answer: Its absorption maximum is 339 nm.

Question: What about the absorption maximum (in CCCO) of the same molecule?
Answer: Its absorption maximum is 339 nm.

Question: And the absorption maximum (in CCO)?
Answer: The absorption maximum was 340 nm.

Question: What about the absorption maximum (in CCOC(C)=O) of the same molecule?
Answer: The absorption maximum was 332 nm.

Question: And the absorption maximum (in CCOCC)?
Answer: Its absorption maximum is 328 nm.

Question: What about the absorption maximum (in CO) of the same molecule?
Answer: The absorption maximum was 341 nm.

Question: And the absorption maximum (in O)?
Answer: The absorption maximum was 335 nm.

Question: Which absorption maximum (in ClCCl) does the source give for `COCCOCCOCCOCC(COCCOCCOCCOC)Oc1cc(/C=C/c2ccc(/C=C(\C#N)c3ccncc3)cc2)c(OC(COCCOCCOCCOC)COCCOCCOCCOC)cc1/C=C/c1ccc(/C=C(\C#N)c2ccncc2)cc1` here?
Answer: Its absorption maximum is 445 nm.

Question: For `CCOCCOCCOC(=O)/C=C/C1=CC2=C(c3c(C)cc(C)cc3C)c3cccn3[B-](F)(F)[N+]2=C1`, which absorption maximum (in ClCCl) is on record?
Answer: The absorption maximum was 536 nm.

Question: For `CC(=O)c1c2c(cc3ccc(N(C)C)cc13)CCC2`, which absorption maximum (in C1CCCCC1) is on record?
Answer: The absorption maximum was 373 nm.

Question: What about the absorption maximum (in C1CCOC1) of the same molecule?
Answer: Its absorption maximum is 377 nm.

Question: And the absorption maximum (in C1COCCO1)?
Answer: The absorption maximum was 376 nm.

Question: And the absorption maximum (in CC#N)?
Answer: Its absorption maximum is 375 nm.

Question: What about the absorption maximum (in CCO) of the same molecule?
Answer: Its absorption maximum is 377 nm.

Question: And the absorption maximum (in CS(C)=O)?
Answer: The absorption maximum was 377 nm.

Question: And the absorption maximum (in Cc1ccccc1)?
Answer: Its absorption maximum is 376 nm.

Question: What about the absorption maximum (in ClC(Cl)Cl) of the same molecule?
Answer: Its absorption maximum is 377 nm.

Question: What about the absorption maximum (in ClCCl) of the same molecule?
Answer: Its absorption maximum is 377 nm.

Question: Which results are given for `CN(C)c1ccc(/C=C/C=C/C2=NC3C(=O)NC(N)=NC3N2[C@H]2C[C@H](O)[C@@H](CO)O2)cc1` (stereo partly drawn)?
Answer: absorption maximum (in C1COCCO1): 352 nm; absorption maximum (in CC#N): 349 nm; absorption maximum (in CO): 343 nm

Question: For `CC1(C)C(/C=C/C2=C(c3ccc(C(=O)O)cc3)C(=C/C=C3/N(CCCCS(=O)(=O)[O-])c4ccccc4C3(C)C)/CCC2)=[N+](CCCCS(=O)(=O)[O-])c2ccccc21`, which absorption maximum (in CO) is on record?
Answer: The absorption maximum was 765 nm.

Question: For `CCCCN(CCCC)c1ccc2c(c1)C#CC#Cc1cc(C(F)(F)F)ccc1C#Cc1cc(c3cc1C#Cc1ccc(N(CCCC)CCCC)cc1C#CC#Cc1cc(C(F)(F)F)ccc1C#C3)C#C2`, which absorption maximum (in ClCCl) is on record?
Answer: The absorption maximum was 477 nm.

Question: Which absorption maximum (in ClCCl) does the source give for `CN(C)c1ccc(C2=C3C=C(c4ccc(C=O)cc4)S[C@]34c3ccccc3[C@H]2c2ccccc24)cc1` here?
Answer: Its absorption maximum is 464 nm.

Question: For `Cn1c(=O)cc(C(=O)c2ccccc2)c2sc(-c3ccc(N(c4ccccc4)c4ccccc4)cc3)cc21`, which absorption maximum (in CC#N) is on record?
Answer: Its absorption maximum is 430 nm.

Question: What about the absorption maximum (in ClCCl) of the same molecule?
Answer: Its absorption maximum is 438 nm.

Question: What does the source list for `CCC1=C(C)C2=C(c3cc(C(=O)Cl)cc(C4=C5C(C)=C(CC)C(C)=[N+]5[B-](F)(F)n5c(C)c(CC)c(C)c54)c3)c3c(C)c(CC)c(C)n3[B-](F)(F)[N+]2=C1C`?
Answer: absorption maximum (in C1CCOC1): 530 nm; absorption maximum (in CC#N): 527 nm; absorption maximum (in CN(C)C=O): 535 nm; absorption maximum (in Cc1ccccc1): 534 nm; absorption maximum (in ClC(Cl)Cl): 534 nm

Question: For `Cc1cc(C)n2c1C=[N+]1[N+](=C3C=NC=CN3[B-]1(F)F)[B-]2(F)F`, which absorption maximum (in ClCCl) is on record?
Answer: Its absorption maximum is 467 nm.

Question: What does the source list for `CCCCCCCCCCCCCCCCOC(=O)c1ccc(N(c2ccccc2)c2ccccc2)cc1`?
Answer: absorption maximum (in C1CCCCC1): 334 nm; absorption maximum (in C1CCOC1): 334 nm; absorption maximum (in CC#N): 332 nm; absorption maximum (in CCOC(C)=O): 334 nm; absorption maximum (in ClCCCl): 336 nm; absorption maximum (in c1ccccc1): 334 nm

Question: With `COc1ccc(/C=C/c2cc(/C=C/c3ccc(OC)cc3)nc(/C=C/c3ccc(OC)cc3)n2)cc1` as the molecule, how does the absorption maximum (in ClCCl) read?
Answer: The absorption maximum was 339 nm.

Question: For `COC(=O)/C=C/c1sc(-c2ccc(N(C)C)cc2)c(-c2cccnc2)c1N`, which absorption maximum (in CC#N) is on record?
Answer: The absorption maximum was 415 nm.

Question: Which absorption maximum (in ClCCl) does the source give for `COc1ccc2cc(/C=C/c3nc(/C=C/c4ccc(N(C)C)cc4)cc(/C=C/c4ccc(N(C)C)cc4)n3)ccc2c1` here?
Answer: Its absorption maximum is 418 nm.

Question: Which results are given for `N#CSC1=CC2=C(c3ccccc3)c3ccc(SC#N)n3[B-](F)(F)[N+]2=C1N1CCOCC1`?
Answer: absorption maximum (in CCCCCC): 560 nm; absorption maximum (in CCOC(C)=O): 554 nm; absorption maximum (in ClCCl): 558 nm

Question: With `F[Si-](F)(c1c2ccccc2cc2ccccc12)(c1c2ccccc2cc2ccccc12)c1c2ccccc2cc2ccccc12` as the molecule, how does the absorption maximum (in C1CCOC1) read?
Answer: Its absorption maximum is 392 nm.

Question: With `CCCCCCCCn1nnc(-c2ccc(C#Cc3ccc(C#Cc4ccc(-c5nnn(CCCCCCCC)n5)cc4)c4nc5c6ccccc6c6ccccc6c5nc34)cc2)n1` as the molecule, how does the absorption maximum (in C1CCOC1) read?
Answer: Its absorption maximum is 428 nm.

Question: And the absorption maximum (in Cc1ccccc1)?
Answer: The absorption maximum was 428 nm.

Question: And the absorption maximum (in ClCCl)?
Answer: Its absorption maximum is 428 nm.

Question: For `CCCCCCCCC1(CCCCCCCC)c2ccccc2-c2ccc(-c3nnc(-c4ccc(-n5c6ccc(C(C)(C)C)cc6c6cc(C(C)(C)C)ccc65)cc4)o3)cc21`, which absorption maximum (in Cc1ccccc1) is on record?
Answer: Its absorption maximum is 352 nm.

Question: Which absorption maximum (in ClC(Cl)Cl) does the source give for `CC(C)(C)NC(=O)c1ccc2ccc3cccc4ccc1c2c34` here?
Answer: The absorption maximum was 377 nm.

Question: With `CN(C)c1ccc(/C=C/C=C/c2ccncc2)cc1` as the molecule, how does the absorption maximum (in C1COCCO1) read?
Answer: Its absorption maximum is 392 nm.

Question: What about the absorption maximum (in CC#N) of the same molecule?
Answer: Its absorption maximum is 392 nm.

Question: What about the absorption maximum (in CCCCCCC) of the same molecule?
Answer: Its absorption maximum is 383 nm.

Question: What about the absorption maximum (in CO) of the same molecule?
Answer: Its absorption maximum is 394 nm.

Question: For `[O-]c1ccccc1/C=N/c1ccccc1/N=C/c1ccccc1[O-]`, which absorption maximum (in C1CCOC1) is on record?
Answer: The absorption maximum was 380 nm.

Question: Which absorption maximum (in ClC(Cl)Cl) does the source give for `CCCN1c2ccccc2Sc2cc(/C=C\c3cc(=O)oc4cc(C)c(Cl)cc34)ccc21` here?
Answer: Its absorption maximum is 432 nm.

Question: Which results are given for `O=[N+]([O-])c1ccc(C#Cc2ccc3ccccc3c2)cc1`?
Answer: absorption maximum (in ClC(Cl)Cl): 338 nm; absorption maximum (in ClCCl): 339 nm

Question: Which absorption maximum (in CC#N) does the source give for `Cc1cc2c(ccc3c(C)[n+](C)c(C)cc32)c(C)[n+]1C` here?
Answer: The absorption maximum was 406 nm.
